Source: patent publication US11690389B2, “Red beet pigment composition” (priority 2017, dated 2023)
Like-named read-outs stand apart in the source and are kept apart here.

What was measured:
beet root = conditions: 50 ppm; cited from earlier work
[1] = tested on: red beet plants (Monty Rz and Belushi Rz); test: Field trials harvested at a single time-point: foliar spraying of red beet plants with egc, betalain pigments and yield data of roots; assay type: in vivo, red beet (Beta vulgaris L. spp. vulgaris); conditions: for Betalains (g kg^−1 DM) / Betalains (mg kg^−1 FW) Bn / Betalains (mg kg^−1 FW) Vx / Betalains:TSS / Bn:Vx: egc 360 g ha^−1 foliar, roots 16 weeks after sowing
Experimental: (§1) Field trials were conducted at the Hoejbakkegaard (latitude 55, […]; Denmark) in 2015, where three-row plots were arranged in randomized block designs with three replicates. Rainfall was complemented by irrigation throughout red beet growth to avoid water stress. Foliar applications of an ethylene generating compound (egc), 2-chloroethylphosphonic acid (CERONE® brand ETHEPHON, 39.9% active ingredient, Bayer Crop Science, Leverkusen, Germany), at a concentration of 360 g ha^−1 were performed with a CO2 backpack spaced 50 cm apart, using manual spraying equipment designed for agricultural use. Egc application began 5 weeks after sowing and continued every 3 weeks, with a total of five applications. Plants were cultivated in loamy soil using techniques recommended for cultivation and plant protection in red beet crop production.
Trial 1. Plants were grown in plots consisted of 4.5 m-long rows, with a single harvest from the middle part of each row performed 16 weeks after sowing.
(§2) Biological replicates consisting of twenty beetroots were washed and split lengthwise. Of these, one pool of halves was ground and homogenized in a 3% sulfuric acid solution (1/1, w/w), using a Waring® two-speed commercial blender (VWR—Bie & Berntsen, Herlev, Denmark). The resulting fine homogenate was subsequently mixed with demineralized water (1/2, w/w) and vortexed. Finally, the sample was centrifuged for 20 min at 4500 rpm, and the supernatant (extract) was utilized for further analyses.
Bn and Vx were measured spectrophotometrically. The beetroot extract was diluted to a proper concentration in 33 mM KH2PO4 (pH 6.5), and the absorption was measured at 476 nm and 538 nm for Bn and Vx, respectively, using a UV-visible spectrophotometer (Thermo Scientific Evolution™ 220, Waltham, Mass., USA). Bn and Vx concentrations were expressed in mg kg^−1 fresh weight (FW), using the corresponding absorbance, molecular weight and extinction coefficient for Bn and Vx.
TSS was measured with a manual refractometer (Refracto 30PX/GS Mettler-Toledo Inc., OH, USA) operating in the 0% to 85% Brix range. The beetroot extract was filtered through 0.45 μm membrane filters, and Brix measurements were performed using 1 mL of the filtrate.
DM was determined after samples were dried to a constant weight at 100° C. for 24 h, based on the difference in mass between the fresh and dry samples. […] was then expressed as a percentage of the dry matter.

A. Mangostanus seedlings = conditions: cited from earlier work
[2] = tested on: red beet plants (Monty Rz and Belushi Rz); test: Field trial with several harvests: betalain accumulation during root growth after foliar spraying with egc; assay type: in vivo, red beet (Beta vulgaris L. spp. vulgaris); conditions: for Bn content at peak: 9 weeks after sowing as printed; for Betalains (mg kg^−1 FW) Bn / Betalains (mg kg^−1 FW) Vx / Bn:Vx: egc 360 g ha^−1
Experimental: as §1
Trial 2. Plots consisted of 12 m-long rows, with several harvests from separate row segments performed during growth (3, 6, 9, 12, 15 and 18 weeks after sowing). For further analyses, biological replicates consisted of 20 whole beetroots harvested per plot.
as §2
Bn and Vx were measured spectrophotometrically. The beetroot extract was diluted to a proper concentration in 33 mM KH2PO4 (pH 6.5), and the absorption was measured at 476 nm and 538 nm for Bn and Vx, respectively, using a UV-visible spectrophotometer (Thermo Scientific Evolution™ 220, Waltham, Mass., USA). Bn and Vx concentrations were expressed in mg kg^−1 fresh weight (FW), using the corresponding absorbance, molecular weight and extinction coefficient for Bn and Vx. […]

[3] = Belushi Rz, 3 weeks after sowing
[4] = Belushi Rz, 6 weeks after sowing
[5] = Belushi Rz, 9 weeks after sowing
[6] = Belushi Rz, 12 weeks after sowing
[7] = Belushi Rz, 15 weeks after sowing
[8] = Belushi Rz, 18 weeks after sowing
[9] = Monty Rz, 12 weeks after sowing
[10] = Monty Rz, 15 weeks after sowing
[11] = Monty Rz, 18 weeks after sowing

## O=P(O)(O)CCCl [egc, 2-chloroethylphosphonic acid]
Beet root
  beta cyanin efflux: promoted
[1]; 16-week-old plants
  Vx content of roots, untreated versus treated plants: did not vary significantly
[1]; Belushi Rz
  increase of Bn:Vx compared with untreated plants: 36%
  increase of betalains:TSS in average: 30%
  increase of root Bn content compared with untreated plants, in average: 20%
[1]; Belushi Rz, egc treated beetroots
  mean Bn:Vx: 6.1
[1]; Field trial 1, Belushi Rz
  Betalains (g kg^−1 DM): 17.4 g kg^−1 DM
  Betalains (mg kg^−1 FW) Bn: 1575 mg kg^−1 FW
  Betalains (mg kg^−1 FW) Vx: 274 mg kg^−1 FW
  Betalains:TSS: 0.126
  Bn:Vx: 5.82
[1]; Field trial 1, Monty Rz
  Betalains (g kg^−1 DM): 21.9 g kg^−1 DM
  Betalains (mg kg^−1 FW) Bn: 2166 mg kg^−1 FW
  Betalains (mg kg^−1 FW) Vx: 386 mg kg^−1 FW
  Betalains:TSS: 0.154
  Bn:Vx: 5.79
[1]; Field trial 2, Belushi Rz
  Betalains (g kg^−1 DM): 15.0 g kg^−1 DM
  Betalains (mg kg^−1 FW) Bn: 1584 mg kg^−1 FW
  Betalains (mg kg^−1 FW) Vx: 247 mg kg^−1 FW
  Betalains:TSS: 0.088
  Bn:Vx: 6.42
[1]; Field trial 2, Monty Rz
  Betalains (g kg^−1 DM): 21.5 g kg^−1 DM
  Betalains (mg kg^−1 FW) Bn: 2458 mg kg^−1 FW
  Betalains (mg kg^−1 FW) Vx: 364 mg kg^−1 FW
  Betalains:TSS: 0.132
  Bn:Vx: 6.88
[1]; Monty Rz
  increase of Bn:Vx compared with untreated plants: 34%
  increase of betalains:TSS in average: 37%
  increase of root Bn content compared with untreated plants: 25%
[1]; Monty Rz, egc treated beetroots
  mean Bn:Vx: 6.3
[1]; both cultivars
  Bn:Vn upon ethephon treatment: increased substantially
  effect on beetroot yield in tons per hectare: no significant effects
  effect on root FW: no significant effects
[1]; both cultivars, 16-week-old plants
  Bn content of roots versus untreated plants: increased
[1]; egc treated beetroots
  DM (dry matter) of beetroots versus untreated roots: lower
  betalain content versus untreated roots: higher
  mean TSS versus untreated roots: lower
A. Mangostanus seedlings; 0.1 mM
  pigment accumulation in seedlings: did not elicit pigment accumulation
A. Mangostanus seedlings; 1 mM
  pigment accumulation in seedlings: did not elicit pigment accumulation
A. Mangostanus seedlings; 5 mM
  pigment accumulation in seedlings: seemed to have an effect
[2]; Belushi Rz
  Bn:Vx higher in egc treated plants, average over all harvests: 35%
  higher Bn content than untreated, average of all harvests: 10%
  mean root Vx, less in average: 20%
  Bn content at peak: 2577 mg kg^−1 FW
[2]; [3]
  Betalains (mg kg^−1 FW) Bn: 945 mg kg^−1 FW
  Betalains (mg kg^−1 FW) Vx: 24.3 mg kg^−1 FW
  Bn:Vx: 39.0
[2]; [4]
  Betalains (mg kg^−1 FW) Bn: 2577 mg kg^−1 FW
  Betalains (mg kg^−1 FW) Vx: 58.4 mg kg^−1 FW
  Bn:Vx: 45.7
[2]; [5]
  Betalains (mg kg^−1 FW) Bn: 2144 mg kg^−1 FW
  Betalains (mg kg^−1 FW) Vx: 128 mg kg^−1 FW
  Bn:Vx: 17.2
[2]; [6]
  Betalains (mg kg^−1 FW) Bn: 1683 mg kg^−1 FW
  Betalains (mg kg^−1 FW) Vx: 157 mg kg^−1 FW
  Bn:Vx: 11.1
[2]; [7]
  Betalains (mg kg^−1 FW) Bn: 1442 mg kg^−1 FW
  Betalains (mg kg^−1 FW) Vx: 211 mg kg^−1 FW
  Bn:Vx: 6.84
[2]; [8]
  Betalains (mg kg^−1 FW) Bn: 1369 mg kg^−1 FW
  Betalains (mg kg^−1 FW) Vx: 286 mg kg^−1 FW
  Bn:Vx: 4.85
[2]; Monty Rz
  Bn:Vx higher in egc treated plants, average over all harvests: 17%
  higher Bn content than untreated, average of all harvests: 17%
  mean root Vx, less in average: 5%
  Bn content at peak: 2867 mg kg^−1 FW
[2]; Monty Rz, 3 weeks after sowing
  Betalains (mg kg^−1 FW) Bn: 1343 mg kg^−1 FW
  Betalains (mg kg^−1 FW) Vx: 32.3 mg kg^−1 FW
  Bn:Vx: 41.6
[2]; Monty Rz, 6 weeks after sowing
  Betalains (mg kg^−1 FW) Bn: 2867 mg kg^−1 FW
  Betalains (mg kg^−1 FW) Vx: 62.3 mg kg^−1 FW
  Bn:Vx: 46.5
[2]; Monty Rz, 9 weeks after sowing
  Betalains (mg kg^−1 FW) Bn: 2685 mg kg^−1 FW
  Betalains (mg kg^−1 FW) Vx: 180 mg kg^−1 FW
  Bn:Vx: 14.9
[2]; [9]
  Betalains (mg kg^−1 FW) Bn: 2475 mg kg^−1 FW
  Betalains (mg kg^−1 FW) Vx: 239 mg kg^−1 FW
  Bn:Vx: 10.5
[2]; [10]
  Betalains (mg kg^−1 FW) Bn: 2274 mg kg^−1 FW
  Betalains (mg kg^−1 FW) Vx: 304 mg kg^−1 FW
  Bn:Vx: 7.56
[2]; [11]
  Betalains (mg kg^−1 FW) Bn: 2219 mg kg^−1 FW
  Betalains (mg kg^−1 FW) Vx: 455 mg kg^−1 FW
  Bn:Vx: 4.89
[2]; both cultivars, 6 weeks after sowing
  highest Bn:Vx: 46
[2]; both cultivars, at each harvest point, 360 g egc ha−1
  root mass and diameter, untreated versus treated red beets: no significant differences
